Experimental data taken from patent US20190359653A1, “SELECTIVE PEPTIDE INHIBITORS OF FRIZZLED” (Genentech, Inc., priority 2016, published 2019).

Columns and labels:
[1] = test system: Wnt5a binding to FZD1 CRD, FZD2 CRD, and FZD7 CRD; assay: ELISA of biotinylated Wnt5a binding to FZD CRD-Fc
Protocol: 384-well Maxisorp plates (cat. no. 464718; Thermo Scientific) were incubated with 30 μL of Neutravidin (cat. no. 31000, Thermo Scientific; 2 μg/mL in PBS) overnight at 4° C. Plates were then washed with PBST and blocked with PBS/1% BSA for 1 hour at RT and then washed with PBST prior to further processing. The binding assay was conducted in 96 well plates (cat no. 83007-374; VWR) which were blocked with PBS/1% BSA overnight at 4° C. hFZD4 CRD-Fc or hFZD7 CRD-Fc (63 ng/mL) were incubated with either Bio-Wnt3a (25 ng/mL) or Bio-Wnt5a (50 ng/mL) in the presence of 4-fold serial dilutions of the indicated peptide in PBS overnight at 4° C. All assays included hFZD9 CRD-mIgG2A protein as a negative control. hFZD7 CRD-His was suspended in 150 mM NaCl, 50 mM Tris-HCl at pH 7.5 and when used in assays an equal volume of the same buffer control was used. The binding assay mixtures were transferred to the Neutravidin coated plates and incubated for ˜1 h at RT. The wells were then washed with PBST, incubated with anti-hIgG1-HRP (1:10,000 suspended in PBS supplemented with 1% BSA; cat. no. A18817, Invitrogen), and washed again with PBST. The signal was developed with the addition of TMB reagent (following the manufacturer's recommendation; KPL; 50-76-00) for 15 min prior to the addition of an equal volume of 1 M phosphoric acid for 10 min Absorbance was measured at 450 nm using a Tekan M1000 plate reader. Values were collected and plotted using Prism Graphpad software. All assay conditions using peptides were at 1% DMSO final concentration. […]
Briefly, the assays were performed using (a) FZD1 CRD-Fc, (b) FZD2 CRD-Fc, (c) FZD4 CRD-Fc, or (d) FZD7 CRD-Fc as the capture reagent and biotinylated-Wnt5a as the detection reagent. […] Streptavidin-HRP was used to detect biotinylated Wnt5a, and HRP activity was measured as a function of chemiluminescence detection at 428 nm. […]

[2] = test system: intestinal organoid samples; assay: RNA sequencing of intestinal organoids; format: cell-based, mouse; details: 6 and 24 h
Protocol: RNA-Seq libraries were prepared using TruSeq RNA Sample Preparation kit (Illumina, CA). The libraries were sequenced on Illumina HiSeq 2500 sequencers to obtain on average 34 million single-end reads (50 bp) per sample. RNAseq reads were first aligned to ribosomal RNA sequences to remove ribosomal reads. The remaining reads were aligned to the mouse reference genome (NCBI Build 38) using GSNAP (version 2013-10-10) (Wu, T. D. & Nacu, S. Fast and SNP-tolerant detection of complex variants and splicing in short reads. Bioinformatics 26, 873-881 (2010)) allowing a maximum of two mismatches per 50 base sequence (parameters: ‘-M 2-n 10-B 2-i 1-N 1-w 200000-E 1-pairmax-rna=200000-clip-overlap’). Transcript annotation was based on the RefSeq database (NCBI Annotation Release 104). To quantify gene expression levels, the number of reads mapped to the exons of each RefSeq gene was calculated. Read counts were scaled by library size, quantile normalized and precision weights calculated using the “voom” R package (Law, C. W., Chen, Y., Shi, W. & Smyth, G. K. voom: precision weights unlock linear model analysis tools for RNA-seq read counts. Genome Biology 15, R29 (2014)). […] In addition, gene expression was obtained in form of normalized Reads Per Kilobase gene model per Million total reads (nRPKM) as described earlier (Srinivasan, K. et al. Untangling the brain's neuroinflammatory and neurodegenerative transcriptional responses. Nat Commun 7, 11295 (2016)). […]
We performed Quantitative Set Analysis for Gene Expression (QuSAGE) (Yaari, G., Bolen, C. R., Thakar, J. & Kleinstein, S. H. Quantitative set analysis for gene expression: a method to quantify gene set differential expression including gene-gene correlations. Nucleic Acids Research 41, e170-e170 (2013)) to identify relevant biological processes associated with Wnt inhibition. […]

| Sequence | effect on Wnt5a binding to FZD1, FZD2 and FZD7 CRD ([1]; peptide 0-10 μM) | expression of markers of Lgr5+ ISCs and reserve ISCs [2] | peptide concentration with the most Wnt5a binding ([1]; FIGS. 22A, 22B) | enterocyte markers [2] |
| --- | --- | --- | --- | --- |
| LPSDDLEFWSHVMY [Fz7-21S, negative control] | showed no effect | Little or no change in gene expression |  |  |
| LPSDDLEFWCHVMY [dFz7-21] |  | substantial down-regulation | 0.05 µM | up-regulation |
